Reference: US5795885A, “Method of inhibiting profileration of cells by administering an aminosterol compound” (priority 1995, dated 1998)
≈ marks a conversion by molar mass, not a printed value.

Experiments:
[1] = tested on: PHA-stimulated human lymphocytes; assay: inhibition of mitogen (PHA)-stimulated growth of human T-cells; type: cell-based; conditions: Homo sapiens, Lymphocyte, read-out: inhibition of PHA-stimulated human lymphocytes (% control); for inhibition at 10 µg/mL: 10 μg/ml
Text: Results are tabulated below.

Lewis lung carcinoma = assay: growth inhibition / cytotoxicity in vitro; type: cell-based; conditions: 10 μg/ml
Text: (§1) As set forth in Table 7 below, all malignant tumors evaluated in tissue culture, endothelial cells and vascular smooth muscle cells were sensitive to inhibition. Thus, compound 1436 has application in the control of growth factor dependent proliferation of many types of tissue.

[2] = tested on: stage 59-60 Xenopus tadpoles; conditions: for tadpole tail capillary occlusion: squalamine at 10 μg/ml
rabbit NHE3 = rabbit NHE3 (Oryctolagus cuniculus, UniProt P26432); conditions: 10 μg/ml; acid preloaded by 40 mM NH4Cl
Sequence of rabbit NHE3 (P26432 30-832): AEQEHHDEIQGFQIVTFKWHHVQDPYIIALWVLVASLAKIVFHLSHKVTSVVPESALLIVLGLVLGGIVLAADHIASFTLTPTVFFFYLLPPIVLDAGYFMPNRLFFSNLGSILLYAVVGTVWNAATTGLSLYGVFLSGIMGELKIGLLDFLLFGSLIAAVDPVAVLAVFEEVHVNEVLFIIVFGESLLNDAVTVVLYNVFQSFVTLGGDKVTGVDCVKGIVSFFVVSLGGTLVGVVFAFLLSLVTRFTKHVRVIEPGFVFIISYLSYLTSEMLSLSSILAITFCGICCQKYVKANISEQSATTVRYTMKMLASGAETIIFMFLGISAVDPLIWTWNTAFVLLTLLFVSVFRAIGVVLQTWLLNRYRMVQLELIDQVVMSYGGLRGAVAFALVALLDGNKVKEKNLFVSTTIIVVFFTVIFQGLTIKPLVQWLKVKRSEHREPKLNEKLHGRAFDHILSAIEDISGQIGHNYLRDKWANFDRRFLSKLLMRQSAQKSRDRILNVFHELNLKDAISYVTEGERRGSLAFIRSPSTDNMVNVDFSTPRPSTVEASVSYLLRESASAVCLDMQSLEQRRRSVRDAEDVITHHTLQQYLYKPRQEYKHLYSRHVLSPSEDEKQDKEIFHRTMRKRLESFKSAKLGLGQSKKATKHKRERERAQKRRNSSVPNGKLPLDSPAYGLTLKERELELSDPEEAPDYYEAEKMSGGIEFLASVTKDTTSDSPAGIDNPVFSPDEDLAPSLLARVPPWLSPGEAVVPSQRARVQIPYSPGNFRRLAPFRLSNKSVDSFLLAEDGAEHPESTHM
Protocol: Internal pH was measured either following acid loading or in the absence of an acid-loading challenge, with the results shown in FIGS. 1A and 1B.
Specifically, PS120 fibroblasts transfected with rabbit NHE3 were grown in supplemented Dulbecco's-modified Eagle's medium as described by Levine et al., J. Biol. Chem. 268, 1993, 25527-25535. […] For cells not acid-preloaded, the actual internal pH value was monitored as a function of time following addition of squalamine, with the results depicted in FIG. 1B.
PS120 fibroblasts transfected with rabbit NHE3 were grown and acid preloaded by exposure to 40 mM NH4 Cl as described above in conjunction with FIGS. 1A and 1B. Internal cellular pH changes expressed as the rate of pH recovery as a function of restored extracellular sodium ion concentration following exposure to 10 μg/ml of the compound were assayed with the fluorescent dye BCECF-AM as described above.

[3] = tested on: Human colon carcinoma HT29; assay: growth inhibition in vitro (Baker et al.); type: cell-based; conditions: 10 μg/ml
Text: as §1

Human melanoma WM 1617 = assay: growth inhibition in vitro (Baker et al.); type: cell-based; conditions: 10 μg/ml
Text: as §1

[4] = tested on: human umbilical venous endothelial cells; assay: growth inhibition in vitro (Baker et al.); type: cell-based; conditions: 10 μg/ml
Text: as §1

[5] = tested on: Human colon carcinoma SW948; assay: growth inhibition in vitro (Baker et al.); type: cell-based; conditions: 10 μg/ml
Text: as §1

[6] = tested on: bovine pulmonary endothelial cells; assay: growth inhibition in vitro (Baker et al.); type: cell-based; conditions: 10 μg/ml
Text: as §1

[7] = tested on: Human coronary artery smooth muscle cells; assay: growth inhibition in vitro (Baker et al.); type: cell-based; conditions: 10 μg/ml
Text: as §1

[8] = tested on: Human microvascular endothelial cells; assay: growth inhibition in vitro (Baker et al.); type: cell-based; conditions: 10 μg/ml
Text: as §1

Murine L1210 leukemia = assay: growth inhibition in vitro (Baker et al.); type: cell-based; conditions: 10 μg/ml
Text: as §1

[9] = tested on: Human ovarian carcinoma SKOV3; assay: growth inhibition in vitro (Baker et al.); type: cell-based
Protocol: as §1
Using the assay described above, the anticancer effects of compound 1437 against several cancer lines was assessed.

[10] = tested on: L1210 lymphoblastic leukemia; assay: mouse model of L1210 leukemia; type: in vivo, C57B mice
B16 melanoma = B16 melanoma growth in C57B mice; type: in vivo, mouse
Protocol: The growth of B16 melanoma in C57B mice is dependent upon neovascularization.
Using the growth of B16 melanoma cells in C57B mice, a recognized model for the evaluation of inhibitors of angiogenesis on the growth of cancers, the effects of subcutaneous, intraperitoneal and oral administration of squalamine were evaluated.
Based on the idea that tumor growth involves both the clonal expansion of a malignant cell along with the development of a supporting vascular supply, a combination of compound 1436 with squalamine was tested to determine whether it would achieve a synergistic effect on solid tumor growth. This concept was evaluated in the B16 melanoma model.
Animals were implanted with B16 melanoma followed by treatment with compound 1436 or 1256 administered in a combined schedule or separately. […] Thus, a combination of these two compounds achieves a therapeutic benefit in tumors dependent on neovascularization that may prevent metastatic spread.

[11] = tested on: chick embryo vitelline capillaries; assay: chick embryo vitelline capillary regression assay; type: in vivo; set-up: key to vitelline capillary regression: +: Vascular reactivity; 0: No vascular reactivity; +/-: Equivocal reactivity; conditions: for vitelline capillary regression: 60 minutes
Protocol: Using the chick embryo vitelline capillaries assay, compounds were tested for their ability to induce capillary regression. Each compound was applied in 0.1 ml of 15% Ficol 400 and PBS onto the embryo, and vascular regression was assessed after 60 minutes.
The 3-day chick embryo consists of an embryonic disc from which numerous vessels emerge and return, forming a "figure 8"-shaped structure--the embryo in the center with vascular loops extending outward over both poles. […] Following a lag period of around 15 minutes, the constriction of continuity between capillary and secondary vessels, generally on the "venous" side, was observed. Continued pulsatile blood flow progressed, resulting in a "swelling" of the blind tube, followed by a pinching off of the remaining connection and formation of an enclosed vascular sac resembling a "blood island." This process progressed until only the largest vessels remained intact.

Murine B16 melanoma = assay: growth inhibition in vitro; type: cell-based; conditions: 10 μg/ml
Text: as §1

[12] = tested on: human coronary artery smooth muscle; assay: proliferation of human coronary artery smooth muscle in vitro; type: cell-based
Text: Aminosterols of the invention may also have utility in inhibiting the growth factor mediated proliferation of smooth muscle within the artery. Following coronary angioplasty, reocclusion commonly occurs, secondary to reparative proliferation of the vascular smooth muscle within the wall of the surgically manipulated blood vessel. This process generally takes place over the course of 7-10 days. To evaluate whether an agent could prevent the growth factor mediated proliferation of smooth muscle within the artery, compound 1436 was evaluated in vitro for its effect on the proliferation of human coronary artery smooth muscle. Results for compound 1436 are shown in FIG. 13, and those for squalamine are shown in FIG. 14, with FIG. 15 being a composite logarithmic plot.

arterial pressure = arterial pressure in the rat after i.v. administration; type: in vivo
Protocol: A 200-g rat was catheterized in the right carotid artery, and the compound was introduced over a ten-second period to a total dosage of 5 mg/kg. Within 30 seconds, the mean arterial pressure had fallen from about 100 mm Hg to about 70 mm Hg, with a marked reduction in pulse pressure from about 40 mm to about 10 mm. […] If cardiac output was basically unaffected, reduction in blood pressure would have resulted principally from a reduction in system resistance.
At that time, 40 μg of noradrenaline was introduced.

[13] = growth and weight gain in growing mice; type: in vivo, C57B mice
Protocol: Animals were dosed QTD (i.p.) starting on Day 1. […] Animals receiving 5 mg/kg QTD experienced about a 50% reduction in growth, compared to untreated controls, while animals receiving 1 mg/kg QTD were affected by about 10%. […] They appeared very much like hypophysectamized animals might appear.

[14] = tested on: heart of a juvenile Xenopus laevis frog; assay: ex vivo beating of isolated frog heart; conditions: 10 μg/ml; Krebs-Ringer with adrenaline 50 μg/ml; about one hour without compound
Protocol: To determine if compound 1436 has such utility, the following experiment was performed. The heart of a juvenile Xenopus laevis frog was dissected from the living animal. The heart was placed into a Petri dish containing Krebs-Ringer buffer with adrenaline 50 μg/ml, and examined with the naked eye. At room temperature, the heart continued beating in a coordinated fashion (atrial beat followed by ventricular beat) for about one hour. In the presence of 10 μg/ml of compound 1436, spontaneous beating persisted up to 24 hours.

fasting blood glucose = fasting blood glucose in mice; type: in vivo, Male CD-1 mice; conditions: intravenous
Protocol: To study the effect of steroid administrator or the NHE responsible for secretion of insulin, several of the aminosterols from shark liver were administered to fasting mice. Male CD-1 mice were assigned to one of four treatment groups. Whole blood glucose was tested using glucometer (Lifescan Glucometer II and One Touch test strips). Statistical analysis was via one-way analysis of variance (ANOVA) followed by subsequent Bonferonni's t-test.

human melanoma = human melanoma growth time course and cell death (Baker et al.); type: cell-based
P. aerug = assay: antibiotic activity (MIC); type: cell-based
mouse IV PK study, HPLC = conditions: in vivo
Protocol: To assess clearance, a mouse IV PK study was performed for compound 319 and squalamine. The compound was administered i.v. and blood samples were taken every 10 minutes. The concentration of the administered steroid was determined by HPLC analysis.

NHE1β = conditions: cited from earlier work

CC(C)[C@@H](CC[C@@H](C)[C@H]1CC[C@H]2[C@@H]3[C@H](O)C[C@H]4C[C@@H](NCCCNCCCCNCCCN)CC[C@]4(C)[C@H]3CC[C@]12C)OS(=O)(=O)O [Compound 1436]
inhibition at 1 µg/mL ([1]; 1 μg/ml): 20%
inhibition at 5 µg/mL ([1]; 5 μg/ml): 50%
inhibition at 10 µg/mL [1]: 80%
cancer cells inhibited in vitro (Lewis lung carcinoma): INHIBITED
time to death of tadpole ([2]; in vivo): about 2 hours
tadpole tail capillary occlusion [2]: common vascular occlusive effect
inhibition of rabbit NHE3 (rabbit NHE3): found to inhibit rabbit NHE3
cancer cells inhibited in vitro [3]: INHIBITED
cancer cells inhibited in vitro (Human melanoma WM 1617): INHIBITED
non-transformed cells inhibited in vitro [4]: INHIBITED
cancer cells inhibited in vitro [5]: INHIBITED
non-transformed cells inhibited in vitro [6]: INHIBITED
non-transformed cells inhibited in vitro [7]: INHIBITED
non-transformed cells inhibited in vitro [8]: INHIBITED
cancer cells inhibited in vitro (Murine L1210 leukemia): INHIBITED
cancer cells inhibited in vitro ([9]; 10 μg/ml): INHIBITED
survival ([10]; highest dose (10 mg/kg every 3 days i.p.)): significant prolongation of life
granulocyte count ([10]; mouse, in vivo): robust granulocyte count
hematocrit ([10]; mouse, in vivo): near normal hematocrit
impact on tumor volume (B16 melanoma; compound 1436 alone 10 mg/kg/every 3 days): no significant impact on tumor volume
tumor growth, single agent (B16 melanoma; squalamine 15 mg/kg/day, compound 1436 alone in a tolerable schedule): Neither administration of squalamine at 15 mg/kg/day nor compound 1436 alone in a tolerable schedule could achieve this effect
vitelline capillary regression ([11]; 0.001 μg applied): +/-
vitelline capillary regression ([11]; 0.01 μg applied): +
vitelline capillary regression ([11]; 0.1 μg applied): +
vitelline capillary regression ([11]; 1 μg applied): +
vitelline capillary regression ([11]; 10 μg applied): +
effect on chick embryo vitelline capillaries (in words) ([11]; in vivo): causes vitelline capillary regression with about the same potency as squalamine
cancer cells inhibited in vitro (Murine B16 melanoma): INHIBITED
suppression of growth (in words) ([12]; FIG. 15): suppress in vitro the growth of human coronary artery smooth muscle
viability ([12]; about 11 μg/ml): without loss of viability
reversibility of effect (arterial pressure; 40 μg noradrenaline at 30 minutes): readily reversible
duration of effect on arterial pressure (arterial pressure; 5 mg/kg i.v.): followed for 30 minutes, without significant change
heart rate (arterial pressure; 5 mg/kg i.v.): no significant increase in heart rate was observed
time to fall in arterial pressure (arterial pressure; 5 mg/kg i.v.): ≤ 30 s
pulse pressure after dosing (arterial pressure; 5 mg/kg i.v., from about 40 mm): about 10 mm
mean arterial pressure after dosing (arterial pressure; 5 mg/kg i.v., from about 100 mm Hg): about 70 mm Hg
reduction in growth of mice ([13]; 1 mg/kg QTD i.p.): about 10%
suppression of growth of mice ([13]; 10 mg/kg QTD i.p., about 1 month): growth was almost completely inhibited
health of treated animals ([13]; mouse, in vivo): all were active, normally proportioned, not-cachectic, and in excellent apparent clinical health
persistence of spontaneous beating of isolated heart [14]: up to 24 hours
hyperglycemia (fasting blood glucose): caused hyperglycemia in mice

CC(C)CCC[C@@H](C)[C@H]1CC[C@H]2[C@@H]3CC[C@H]4C[C@@H](NCCCNCCCCNCCCN)CC[C@]4(C)[C@H]3CC[C@]12C [Compound 353]
tadpole response similar to compound 1436 ([2]; tadpole assay): produce effects like those produced by compound 1436
vitelline capillary regression ([11]; 1 μg applied): +/-
effect on chick embryo vitelline capillaries (in words) ([11]; in vivo): no effect on the chick embryo capillary bed
apoptotic cell death (human melanoma): apoptotic cell death has been induced
effect on growth of melanoma (time course) (human melanoma; FIG. 17A): most pronounced over 48 hours, with less of an effect noted within the first 12 hours of incubation

CC(C)C(CO)(CC[C@@H](C)[C@H]1CC[C@H]2[C@@H]3[C@H](O)C[C@H]4C[C@@H](NCCCNCCCCN)CC[C@]4(C)[C@H]3CC[C@]12C)OS(=O)(=O)O (single isomer, unassigned) [Compound 1437]
inhibition at 10 µg/mL [1]: 10%
anticancer activity [9]: found to exhibit anticancer activity
hyperglycemia (fasting blood glucose): caused hyperglycemia in mice

CC(C)CCC[C@@H](C)[C@H]1CC[C@H]2[C@@H]3CC[C@H]4C[C@H](NCCCCN)CC[C@]4(C)[C@H]3CC[C@]12C
MIC (P. aerug): > 256 µg/mL

N.N.[Cl][Pt][Cl] [Cisplatin, cisplatin, reference compound]
anemia ([10]; by day 28): profound anemia

COC(=O)CCC(C)[C@H]1CCC2C3CC[C@@H]4C[C@H](NCCN)CC[C@]4(C)C3C[C@H](O)[C@@]21C (stereo partly shown)
MIC (P. aerug): 16 to 32 µg/mL (≈ 35.7 to 71.3 µM)

COC(=O)CCC(C)[C@H]1CCC2C3CC[C@H]4C[C@@H](NCCCNCCCCNCCCN)CC[C@]4(C)C3CC[C@@]21C (stereo partly shown)
MIC (P. aerug): 64 µg/mL (≈ 111 µM)

C[C@H](CCC(=O)O)[C@H]1CC[C@H]2[C@@H]3CC[C@H]4C[C@@H](NCCCNCCCCN)CC[C@]4(C)[C@H]3CC[C@]12C [Compound 319]
tadpole tail capillary occlusion [2]: common vascular occlusive effect
pharmacokinetic clearance compared with squalamine (mouse IV PK study, HPLC): more rapid pharmacokinetic clearance than squalamine
control of B16 melanoma (B16 melanoma; subcutaneous administration (FIG. 6)): control of B16 in C57B mice to an extent almost comparable to squalamine
vitelline capillary regression ([11]; 0.001 μg applied): +/-
vitelline capillary regression ([11]; 0.01 μg applied): +
vitelline capillary regression ([11]; 0.1 μg applied): +
vitelline capillary regression ([11]; 1 μg applied): +
vitelline capillary regression ([11]; 10 μg applied): +
activity in vitelline capillary regression assay (in words) ([11]; in vivo): especially active

N=C(N)NC(=O)c1nc(Cl)c(N)nc1N [Amiloride, amiloride]
inhibition of NHE1β (NHE1β): inhibited by high concentrations

CC(C)CCC[C@@H](C)[C@H]1CC[C@H]2[C@@H]3CC[C@H]4C[C@@H](NCCCCN)CC[C@]4(C)[C@H]3CC[C@]12C
MIC (P. aerug): > 256 µg/mL
